Laboratory results from patent US7427627B2, “N-(4-(4-methylthiazol-5-yl) pyrimidin-2-yl)-N-phenylamines as antiproliferative compounds” (Cyclacel Limited, priority 2001, dated 2008).
Like-named read-outs stand apart in the source and are kept apart here.

Legend:
Messa = test: 72-h MTT assay, Messa; assay type: cell-based; conditions: Homo sapiens, MES-SA, read-out: 72-h MTT IC50 Messa, Table 3, Uterine
Experimental: (§1) The compounds from the examples above were subjected to a standard cellular proliferation assay using human tumour cell lines obtained from the ATCC (American Type Culture Collection, 10801 University Boulevard, Manessas, Va. 20110-2209, USA). Standard 72-h MTT (thiazolyl blue; 3-[4,5-dimethylthiazol-2-yl]-2,5-diphenyltetrazolium bromide) assays were performed (Haselsberger, K.; Peterson, D. C.; Thomas, D. G.; Darling, J. L. Anti Cancer Drugs 1996, 7, 331-8; Loveland, B. E.; Johns, T. G.; Mackay, I. R.; Vaillant, F.; Wang, Z. X.; Hertzog, P. J. Biochemistry International 1992, 27, 501-10). In short: cells were seeded into 96-well plates according to doubling time and incubated overnight at 37° C. Test compounds were made up in DMSO and a 1/3 dilution series prepared in 100 μL cell media, added to cells (in triplicates) and incubated for 72 ho at 37° C. MTT was made up as a stock of 5 mg/mL in cell media and filter-sterilised. Media was removed from cells followed by a wash with 200 μL PBS. MTT solution was then added at 20 μL per well and incubated in the dark at 37° C. for 4 h. MTT solution was removed and cells again washed with 200 μL PBS. MTT dye was solubilised with 200 μL per well of DMSO with agitation.

SKUT-1 = test: 72-h MTT assay, SKUT-1; assay type: cell-based; conditions: Homo sapiens, SK-UT-1, 72 h, read-out: 72-h MTT IC50 SKUT-1; Table 3; Leiomyosarcoma
Experimental: as §1

Hacat = test: 72-h MTT assay, Hacat; assay type: cell-based; conditions: Homo sapiens, read-out: 72-h MTT IC50 Hacat, Table 3, Skin keratinocytes
Experimental: as §1

K562 = test: 72-h MTT assay, K562; assay type: cell-based; conditions: Homo sapiens, K562, 72 h, read-out: 72-h MTT IC50 K562; Table 3; Chronic myelogenous leukaemia
Experimental: as §1

DU-145 = test: 72-h MTT assay, DU-145; assay type: cell-based; conditions: Homo sapiens, DU-145, 72 h, read-out: 72-h MTT IC50 DU-145; Table 3; Prostate
Experimental: as §1

IMR-90 = test: 72-h MTT assay, IMR-90; assay type: cell-based; conditions: Homo sapiens, IMR-90, 72 h, read-out: 72-h MTT IC50 IMR-90; Table 3; Foetal lung fibroblast (non-transformed)
Experimental: as §1

CDK2/cyclin E = target: T1, CDK2/cyclin E (Homo sapiens, UniProt P24941); test: Kinase assay CDK2/cyclin E; assay type: biochemical; conditions: Table 1; read-out: Kinase inhibition, IC50 (μM) CDK2/E
T1 construct: His6

U2OS = test: 72-h MTT assay, U2OS; assay type: cell-based; conditions: Homo sapiens, read-out: 72-h MTT IC50 U2OS, Table 3, Bone osteosarcoma
Experimental: as §1

nci-H460 = test: 72-h MTT assay, nci-H460; assay type: cell-based; conditions: Homo sapiens, NCI-H460, 72 h, read-out: 72-h MTT IC50 nci-H460; Table 3; Lung
Experimental: as §1

CDK4/cyclin D1 = CDK4/cyclin D1 (Homo sapiens, UniProt P11802); test: Kinase assay CDK4/cyclin D1;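 also: Enzyme: His6-tagged recombinant human CDK4 produced in baculovirus-infected Sf9 insect cells and purified by metal-chelate chromatography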
Chain of CDK4/cyclin D1 (P11802 whole entry): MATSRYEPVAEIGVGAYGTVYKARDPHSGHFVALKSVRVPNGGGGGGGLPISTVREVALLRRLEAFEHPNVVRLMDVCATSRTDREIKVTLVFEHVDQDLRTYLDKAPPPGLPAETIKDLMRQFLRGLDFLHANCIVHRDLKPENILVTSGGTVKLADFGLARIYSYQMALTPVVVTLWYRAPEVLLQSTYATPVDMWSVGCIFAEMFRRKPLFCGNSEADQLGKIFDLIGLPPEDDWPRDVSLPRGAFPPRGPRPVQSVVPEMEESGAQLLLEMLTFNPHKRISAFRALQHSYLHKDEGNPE
Chain of CDK4/cyclin D1 (P24385 whole entry partner): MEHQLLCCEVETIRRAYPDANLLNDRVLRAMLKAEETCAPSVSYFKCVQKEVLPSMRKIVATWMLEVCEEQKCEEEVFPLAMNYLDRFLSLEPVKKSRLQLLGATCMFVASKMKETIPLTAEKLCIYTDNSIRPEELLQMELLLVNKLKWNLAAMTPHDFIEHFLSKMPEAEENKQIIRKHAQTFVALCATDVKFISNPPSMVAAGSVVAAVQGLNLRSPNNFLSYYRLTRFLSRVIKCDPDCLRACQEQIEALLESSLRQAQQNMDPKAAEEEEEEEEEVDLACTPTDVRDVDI

Lovo = test: 72-h MTT assay, Lovo; assay type: cell-based; conditions: Homo sapiens, read-out: 72-h MTT IC50 Lovo, Table 3, Colon
Experimental: as §1

CCRF-CEM = test: 72-h MTT assay, CCRF-CEM; assay type: cell-based; conditions: Homo sapiens, read-out: 72-h MTT IC50 CCRF-CEM, Table 3, Leukaemia
Experimental: as §1

SKUT-1B = test: 72-h MTT assay, SKUT-1B; assay type: cell-based; conditions: Homo sapiens, Skut1B, read-out: 72-h MTT IC50 SKUT-1B, Table 3, Leiomyosarcoma
Experimental: as §1

HCT-116 = test: 72-h MTT assay, HCT-116; assay type: cell-based; conditions: Homo sapiens, HCT-116, 72 h, read-out: 72-h MTT IC50 HCT-116; Table 3; Colon
Experimental: as §1

HL60 = test: 72-h MTT assay, HL60; assay type: cell-based; conditions: Homo sapiens, HL-60, 72 h, read-out: 72-h MTT IC50 HL60; Table 3; Promyelocytic leukaemia
Experimental: as §1

WI38 = test: 72-h MTT assay, WI38; assay type: cell-based; conditions: Homo sapiens, WI-38, 72 h, read-out: 72-h MTT IC50 WI38; Table 3; Foetal lung (non-transformed)
Experimental: as §1

SJSA-1 = test: 72-h MTT assay, SJSA-1; assay type: cell-based; conditions: Homo sapiens, SJSA-1, 72 h, read-out: 72-h MTT IC50 SJSA-1; Table 3; Osteogenic sarcoma
Experimental: as §1

AGS = test: 72-h MTT assay, AGS; assay type: cell-based; conditions: Homo sapiens, read-out: 72-h MTT IC50 AGS, Table 3, Gastric adenocarcinoma
Experimental: as §1

MCF-7 = test: 72-h MTT assay, MCF-7; assay type: cell-based; conditions: Homo sapiens, MCF7, 72 h, read-out: 72-h MTT IC50 MCF-7; Table 3; Breast
Experimental: as §1

Hela = test: 72-h MTT assay, Hela; assay type: cell-based; conditions: Homo sapiens, read-out: 72-h MTT IC50 Hela, Table 3, Cervix
Experimental: as §1

Hs27 = test: 72-h MTT assay, Hs27; assay type: cell-based; conditions: Homo sapiens, HS27, 72 h, read-out: 72-h MTT IC50 Hs27; Table 3; Foreskin fibroblast (non-transformed)
Experimental: as §1

H1299 = test: 72-h MTT assay, H1299; assay type: cell-based; conditions: Homo sapiens, NCI-H1299, 72 h, read-out: 72-h MTT IC50 H1299; Table 3; Lung
Experimental: as §1

Saos-2 = test: 72-h MTT cytotoxicity assay, Saos-2; assay type: cell-based; conditions: Homo sapiens
Experimental: as §1

A549 = test: 72-h MTT cytotoxicity assay, A549; assay type: cell-based, human; conditions: Homo sapiens
Experimental: In short: cells were seeded into 96-well plates according to doubling time and incubated overnight at 37° C. Test compounds were made up in DMSO and a 1/3 dilution series prepared in 100 μL cell media, added to cells (in triplicates) and incubated for 72 ho at 37° C. MTT was made up as a stock of 5 mg/mL in cell media and filter-sterilised. Media was removed from cells followed by a wash with 200 μL PBS. MTT solution was then added at 20 μL per well and incubated in the dark at 37° C. for 4 h. MTT solution was removed and cells again washed with 200 μL PBS. MTT dye was solubilised with 200 μL per well of DMSO with agitation.

Messa-Dx5 = test: 72-h MTT assay, Messa-Dx5; assay type: cell-based; conditions: Homo sapiens, MES-SA/Dx5, 72 h, read-out: 72-h MTT IC50 Messa-Dx5; Table 3; Uterine
Experimental: as §1

HT29 = test: 72-h MTT cytotoxicity assay, HT29; assay type: cell-based; conditions: Homo sapiens
Experimental: as §1

tumour cells = test: 72-h MTT assay, mean over tumour cell lines; assay type: cell-based; conditions: Homo sapiens, Table 3
Experimental: as §1

SK-N-MC = test: 72-h MTT assay, SK-N-MC; assay type: cell-based; conditions: Homo sapiens, read-out: 72-h MTT IC50 SK-N-MC, Table 3, Neuroblastoma
Experimental: as §1

[1] = SAOS-2, 72 h, read-out: 72-h MTT IC50 Saos-2, Table 3, Bone osteosarcoma
[2] = SAOS-2, read-out: 72-h MTT in vitro IC50 (μM) Saos-2, Table 1, 72 h
[3] = A549, 72 h, read-out: 72-h MTT IC50 A549, Table 3, Lung
[4] = A549, read-out: 72-h MTT in vitro IC50 (μM) A549, Table 1, 72 h
[5] = HT-29, 72 h, read-out: 72-h MTT IC50 HT29, Table 3, Colon
[6] = HT-29, read-out: 72-h MTT in vitro IC50 (μM) HT29, Table 1, 72 h

| SMILES | IC50 (Messa) | IC50 (SKUT-1) | IC50 (Hacat) | IC50 (K562) | IC50 (DU-145) | IC50 (IMR-90) | IC50 (CDK2/cyclin E) | IC50 (nci-H460) | IC50 (CDK4/cyclin D1) | IC50 (Lovo) | IC50 (CCRF-CEM) | IC50 (SKUT-1B) | IC50 (HCT-116) | IC50 (HL60) | IC50 (WI38) | IC50 (SJSA-1) | IC50 (AGS) | IC50 (MCF-7) | IC50 (Hela) | IC50 (Hs27) | also measured |
| --- | --- | --- | --- | --- | --- | --- | --- | --- | --- | --- | --- | --- | --- | --- | --- | --- | --- | --- | --- | --- | --- |
| Cc1nc(N)sc1-c1ccnc(Nc2cccc(I)c2)n1 [Compound 10, [4-(2-Amino-4-methyl-thiazol-5-yl)-pyrimidin-2-yl]-(3-iodo-phenyl)-amine] | 110 nM | 300 nM | 170 nM | 150 nM | 750 nM | > 5000 nM | 0.05 µM | 180 nM | 240 nM | 130 nM | 260 nM | 40 nM | 280 nM | 70 nM | > 5000 nM | 850 nM | 300 nM | 190 nM | 140 nM | > 5000 nM | IC50 (U2OS): 500 nM; IC50 (H1299): 270 nM; IC50 (Saos-2; [1]): 0.43 µM; IC50 (Saos-2; [2]): 0.58 µM; IC50 (A549; [3]): 0.6 µM; IC50 (A549; [4]): 0.29 µM; IC50 (Messa-Dx5): 130 nM; IC50 (HT29; [5]): 0.1 µM; IC50 (HT29; [6]): 0.51 µM; IC50 (tumour cells): 280 nM; IC50 (SK-N-MC): 280 nM |
| Cc1nc(N)sc1-c1ccnc(Nc2ccc(CCO)cc2)n1 [Compound 15, 2-{4-[4-(2-Amino-4-methyl-thiazol-5-yl)-pyrimidin-2-ylamino]-phenyl}-ethanol] | 550 nM | 810 nM | 730 nM | 1350 nM | 980 nM | > 5000 nM | 0.43 µM | 600 nM | 1360 nM | 230 nM | 850 nM | 390 nM | 690 nM | 2870 nM | > 5000 nM | 1500 nM | 1050 nM | 4740 nM | 550 nM | > 5000 nM | IC50 (H1299): 630 nM; IC50 (Saos-2; [1]): 0.93 µM; IC50 (Saos-2; [2]): 2.84 µM; IC50 (A549; [3]): 0.95 µM; IC50 (A549; [4]): 3.04 µM; IC50 (Messa-Dx5): 140 nM; IC50 (HT29; [5]): 0.41 µM; IC50 (HT29; [6]): 3.8 µM; IC50 (tumour cells): 1030 nM; IC50 (SK-N-MC): 580 nM |
